The text below walks through data of patent US12226412B2, “Heteroaryl-ketone fused azadecalin glucocorticoid receptor modulators” (Corcept Therapeutics, Inc., priority 2012, dated 2025).

Where two headings read alike, the source gives them in different places. Some results are limits rather than exact numbers.

In assay [1] the target is T1, human recombinant GR (Homo sapiens, UniProt P04150).
T1 construct: purchased PanVera P2812
T1 sequence (P04150 1-777): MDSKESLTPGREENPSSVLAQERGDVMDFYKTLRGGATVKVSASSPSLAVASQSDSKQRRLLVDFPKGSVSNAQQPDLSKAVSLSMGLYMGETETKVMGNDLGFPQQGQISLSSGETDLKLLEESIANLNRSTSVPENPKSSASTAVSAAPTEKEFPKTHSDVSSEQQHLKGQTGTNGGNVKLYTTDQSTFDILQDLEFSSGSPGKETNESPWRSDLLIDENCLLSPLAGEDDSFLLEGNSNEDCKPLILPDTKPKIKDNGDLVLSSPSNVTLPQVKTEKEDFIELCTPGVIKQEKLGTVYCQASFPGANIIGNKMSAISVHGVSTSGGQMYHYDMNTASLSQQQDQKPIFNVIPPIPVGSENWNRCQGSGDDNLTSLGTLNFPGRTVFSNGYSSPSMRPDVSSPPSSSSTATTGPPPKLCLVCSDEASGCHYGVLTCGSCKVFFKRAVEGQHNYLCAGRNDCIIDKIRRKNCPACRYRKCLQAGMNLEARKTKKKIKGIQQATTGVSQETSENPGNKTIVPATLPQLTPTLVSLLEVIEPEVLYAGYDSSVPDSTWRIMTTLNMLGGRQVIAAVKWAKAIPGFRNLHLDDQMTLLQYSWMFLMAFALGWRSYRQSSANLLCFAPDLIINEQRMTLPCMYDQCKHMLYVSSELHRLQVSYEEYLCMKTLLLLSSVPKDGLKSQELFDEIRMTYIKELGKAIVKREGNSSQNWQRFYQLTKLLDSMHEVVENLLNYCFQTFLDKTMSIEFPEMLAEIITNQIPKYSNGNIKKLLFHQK
Briefly: Human glucocorticoid receptor (GR) fluorescence polarisation (FP) binding assay. The gist of the method:
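Competition fluorescence polarisation: 0.5 nM GS Red labelled glucocorticoid and 1 nM recombinant human GR with 8-point half-log compound series, 1% DMSO, 4 h room temperature, potassium phosphate pH 7.4 buffer with molybdate, EDTA, DTT. Affinity derived from the drop in polarisation, normalised to blank wells.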
(Fluorescence polarisation rises when a labelled molecule tumbles more slowly, as on binding a larger partner.)

Assay [2] has as its system induction of TAT by dexamethasone in HepG2 cells. The assay can be described thus: HepG2 tyrosine aminotransferase (TAT) assay. It counts as cell-based, human.
Where [3] appears, read: human recombinant GR, fluorescence polarisation binding assay, read-out: GR binding.
Where [4] appears, read: HepG2 cells, challenge of 100 nM dexamethasone, Ki from IC50 by Cheng and Prusoff equation.

In the case of `O=C(c1cc(C(F)(F)F)ccn1)[C@]12Cc3cnn(-c4ccc(F)cc4)c3C=C1CCN(S(=O)(=O)c1c[nH]cn1)C2` [Example 2W, (R)-(6-((1H-imidazol-4-yl)sulfonyl)-1-(4-fluorophenyl)-4,4a,5,6,7,8-hexahydro-1H-pyrazolo[3,4-g]isoquinolin-4a-yl)(4-(trifluoromethyl)pyridin-2-yl)methanone], the Ki was greater than 1 nM in assay [1] (setting [3]) and 20 to 100 nM in assay [2] (setting [4]).
`CCn1cc(S(=O)(=O)N2CCC3=Cc4c(cnn4-c4ccc(F)cc4)C[C@]3(C(=O)c3cscn3)C2)cn1` [Example 11BZ, (R)-(6-((1-ethyl-1H-pyrazol-4-yl)sulfonyl)-1-(4-fluorophenyl)-4,4a,5,6,7,8-hexahydro-1H-pyrazolo[3,4-g]isoquinolin-4a-yl)(thiazol-4-yl)methanone]: the Ki in assay [1] (setting [3]) was less than 0.5 nM; in assay [2] (setting [4]) it was 20 to 100 nM.
As to `O=C(c1ccccn1)[C@]12Cc3cnn(-c4ccc(F)cc4)c3C=C1CCN(S(=O)(=O)c1ccc(F)c(F)c1F)C2` [Example 11AC, (R)-(1-(4-fluorophenyl)-6-((2,3,4-trifluorophenyl)sulfonyl)-4,4a,5,6,7,8-hexahydro-1H-pyrazolo[3,4-g]isoquinolin-4a-yl)(pyridin-2-yl)methanone], the values for the Ki in assay [1] (setting [3]) and in assay [2] (setting [4]) were less than 0.5 nM and less than 20 nM, respectively.
As to `O=C(c1ccco1)[C@]12Cc3cnn(-c4ccc(F)cc4)c3C=C1CCN(S(=O)(=O)c1ccc(C(F)(F)F)cc1)C2` [Example 1G, (R)-(1-(4-fluorophenyl)-6-((4-(trifluoromethyl)phenyl)sulfonyl)-4,4a,5,6,7,8-hexahydro-1H-pyrazolo[3,4-g]isoquinolin-4a-yl)(furan-2-yl)methanone], the Ki in assay [1] was less than 0.5 nM; in assay [2], 20 to 100 nM.
In the case of `Cc1ccnc(C(=O)[C@]23Cc4cnn(-c5ccc(F)cc5)c4C=C2CCN(S(=O)(=O)c2cccc(C(=O)O)c2)C3)c1` [Example 11AW, (R)-3-((1-(4-fluorophenyl)-4a-(4-methylpicolinoyl)-4a,5,7,8-tetrahydro-1H-pyrazolo[3,4-g]isoquinolin-6 (4H)-yl)sulfonyl)benzoic acid], the Ki in assay [1] (setting [3]) is less than 0.5 nM; in assay [2] (setting [4]), no less than 100 nM.
The like results for `CCn1cc(S(=O)(=O)N2CCC3=Cc4c(cnn4-c4ccc(F)cc4)C[C@]3(C(=O)c3cc(C(F)(F)F)ccn3)C2)cn1` [Example 15, (R)-(6-((1-ethyl-1H-pyrazol-4-yl)sulfonyl)-1-(4-fluorophenyl)-4,4a,5,6,7,8-hexahydro-1H-pyrazolo[3,4-g]isoquinolin-4a-yl)(4-(trifluoromethyl)pyridin-2-yl)methanone] were, in that order, less than 0.5 nM and less than 20 nM.
With `COc1cccc(S(=O)(=O)N2CCC3=Cc4c(cnn4-c4ccc(F)cc4)C[C@]3(C(=O)c3ccccn3)C2)c1` [Example 2G, (R)-(1-(4-fluorophenyl)-6-((3-methoxyphenyl)sulfonyl)-4,4a,5,6,7,8-hexahydro-1H-pyrazolo[3,4-g]isoquinolin-4a-yl)(pyridin-2-yl)methanone], the Ki was less than 0.5 nM in assay [1] and less than 20 nM in assay [2].
As for `COc1ccc(S(=O)(=O)N2CCC3=Cc4c(cnn4-c4ccc(F)cc4)C[C@]3(C(=O)c3ccccn3)C2)cc1F` [Example 11D, (R)-(6-((3-fluoro-4-methoxyphenyl)sulfonyl)-1-(4-fluorophenyl)-4,4a,5,6,7,8-hexahydro-1H-pyrazolo[3,4-g]isoquinolin-4a-yl)(pyridin-2-yl)methanone], the Ki is less than 0.5 nM in assay [1] (setting [3]) and less than 20 nM in assay [2] (setting [4]).
Take `O=C(c1ccccn1)[C@]12Cc3cnn(-c4ccc(F)cc4)c3C=C1CCN(S(=O)(=O)c1ccc(F)c(F)c1)C2` [Example 11P, (R)-(6-((3,4-difluorophenyl)sulfonyl)-1-(4-fluorophenyl)-4,4a,5,6,7,8-hexahydro-1H-pyrazolo[3,4-g]isoquinolin-4a-yl)(pyridin-2-yl)methanone]: the Ki in assay [1] was less than 0.5 nM; in assay [2], less than 20 nM.
For `Cc1nnc(C(=O)[C@]23Cc4cnn(-c5ccc(F)cc5)c4C=C2CCN(S(=O)(=O)c2ccc(C(F)(F)F)cc2)C3)o1` [Example 1D, (R)-(1-(4-fluorophenyl)-6-((4-(trifluoromethyl)phenyl)sulfonyl)-4,4a,5,6,7,8-hexahydro-1H-pyrazolo[3,4-g]isoquinolin-4a-yl)(5-methyl-1,3,4-oxadiazol-2-yl)methanone], the Ki in assay [1] (setting [3]) was greater than 1 nM; in assay [2] (setting [4]), no less than 100 nM.
In the case of `N#Cc1ccc(CS(=O)(=O)N2CCC3=Cc4c(cnn4-c4ccc(F)cc4)C[C@]3(C(=O)c3nccs3)C2)cc1` [Example 5B, (R)-4-(((1-(4-fluorophenyl)-4a-(thiazole-2-carbonyl)-4a,5,7,8-tetrahydro-1H-pyrazolo[3,4-g]isoquinolin-6 (4H)-yl)sulfonyl)methyl)benzonitrile], the Ki in assay [1] (setting [3]) was less than 0.5 nM; in assay [2] (setting [4]), no less than 100 nM.
Regarding `Cc1ccc(S(=O)(=O)N2CCC3=Cc4c(cnn4-c4ccc(F)cc4)C[C@]3(C(=O)c3ccccn3)C2)c(F)c1` [Example 11E, (R)-(6-((2-fluoro-4-methylphenyl)sulfonyl)-1-(4-fluorophenyl)-4,4a,5,6,7,8-hexahydro-1H-pyrazolo[3,4-g]isoquinolin-4a-yl)(pyridin-2-yl)methanone], the Ki in assay [1] (setting [3]) is less than 0.5 nM; in assay [2] (setting [4]), 20 to 100 nM.
Turning to `O=C(c1ncco1)[C@]12Cc3cnn(-c4ccc(F)cc4)c3C=C1CCN(S(=O)(=O)c1ccc(C(F)(F)F)cc1)C2` [Example 1F, (R)-(1-(4-fluorophenyl)-6-((4-(trifluoromethyl)phenyl)sulfonyl)-4,4a,5,6,7,8-hexahydro-1H-pyrazolo[3,4-g]isoquinolin-4a-yl)(oxazol-2-yl)methanone], the Ki in assay [1] (setting [3]) is less than 0.5 nM; in assay [2] (setting [4]), 20 to 100 nM.
For `CCn1ncc(S(=O)(=O)N2CCC3=Cc4c(cnn4-c4ccc(F)cc4)C[C@]3(C(=O)c3ccccn3)C2)n1` [Example 11CH, (R)-(6-((2-ethyl-2H-1,2,3-triazol-4-yl)sulfonyl)-1-(4-fluorophenyl)-4,4a,5,6,7,8-hexahydro-1H-pyrazolo[3,4-g]isoquinolin-4a-yl)(pyridin-2-yl)methanone], the results for the Ki in assay [1] (setting [3]) and in assay [2] (setting [4]) were less than 0.5 nM and less than 20 nM, respectively.
`Cn1ncc(S(=O)(=O)N2CCC3=Cc4c(cnn4-c4ccc(F)cc4)C[C@]3(C(=O)c3cscn3)C2)n1` (single isomer, unassigned) [Example 11DA]: the Ki is less than 0.5 nM in assay [1] (setting [3]) and less than 20 nM in assay [2] (setting [4]).
As to `Cn1cc(C(=O)[C@]23Cc4cnn(-c5ccc(F)cc5)c4C=C2CCN(S(=O)(=O)c2ccc(Cl)c(Cl)c2)C3)cn1` [Example 11CC, (R)-(6-((3,4-dichlorophenyl)sulfonyl)-1-(4-fluorophenyl)-4,4a,5,6,7,8-hexahydro-1H-pyrazolo[3,4-g]isoquinolin-4a-yl)(1-methyl-1H-pyrazol-4-yl)methanone], the values for the Ki in assay [1] (setting [3]) and in assay [2] (setting [4]) were greater than 1 nM and 20 to 100 nM, respectively.
The like results for `Cc1csc(C(=O)[C@]23Cc4cnn(-c5ccc(F)cc5)c4C=C2CCN(S(=O)(=O)c2cccc(C(F)(F)F)c2)C3)n1` [Example 12M, (R)-(1-(4-fluorophenyl)-6-((3-(trifluoromethyl)phenyl)sulfonyl)-4,4a,5,6,7,8-hexahydro-1H-pyrazolo[3,4-g]isoquinolin-4a-yl)(4-methylthiazol-2-yl)methanone] were, in that order, 0.5 to 1 nM and 20 to 100 nM.
The like results for `Cc1ccnc(C(=O)[C@]23Cc4cnn(-c5ccc(F)cc5)c4C=C2CCN(S(=O)(=O)c2cnn(C)c2C)C3)c1` [Example 11AI, (R)-(6-((1,5-dimethyl-1H-pyrazol-4-yl)sulfonyl)-1-(4-fluorophenyl)-4,4a,5,6,7,8-hexahydro-1H-pyrazolo[3,4-g]isoquinolin-4a-yl)(4-methylpyridin-2-yl)methanone] were, in that order, less than 0.5 nM and less than 20 nM.
For the compound `Cn1nccc1S(=O)(=O)N1CCC2=Cc3c(cnn3-c3ccc(F)cc3)C[C@]2(C(=O)c2cc(C(F)(F)F)ccn2)C1` [Example 11BM, (R)-(1-(4-fluorophenyl)-6-((1-methyl-1H-pyrazol-5-yl)sulfonyl)-4,4a,5,6,7,8-hexahydro-1H-pyrazolo[3,4-g]isoquinolin-4a-yl)(4-(trifluoromethyl)pyridin-2-yl)methanone], the Ki in assay [1] (setting [3]) was less than 0.5 nM; in assay [2] (setting [4]), less than 20 nM.
In the case of `Cc1ccc(S(=O)(=O)N2CCC3=Cc4c(cnn4-c4ccc(F)cc4)C[C@]3(C(=O)c3nccs3)C2)cc1F` [Example 12C, (R)-(6-((3-fluoro-4-methylphenyl)sulfonyl)-1-(4-fluorophenyl)-4,4a,5,6,7,8-hexahydro-1H-pyrazolo[3,4-g]isoquinolin-4a-yl)(thiazol-2-yl)methanone], the results for the Ki in assay [1] (setting [3]) and in assay [2] (setting [4]) were less than 0.5 nM and 20 to 100 nM, respectively.
